Measured values taken from paper PMC3863390 (Molecular nutrition & food research, 2012).
Where “and” joins values, the source holds several entries; their conditions need not be identical. Equal values may be shown once.

Tests used:
[1] = system: human bladder cancer cell lines (HBCCs); format: cell-based; conditions: p>0.8, data not shown
RT4 cells [2] = test: SRB cell viability assay in RT4 cells; format: cell-based, human; conditions: for RT4 cell viability inhibition: 20 μM, 48 hr
J82 cells [3] = test: SRB cell viability assay in J82 cells; format: cell-based; conditions: Homo sapiens, J82, 48 h, read-out: IC50, cell viability
UMUC3 cells = test: cells; format: cell-based; conditions: Homo sapiens, UMUC3, 48 h, read-out: IC50, cell viability
[4] = system: Normal human bladder urothelial cells (NHU); test: tissue or blood; format: cell-based
RT4 cells [5] = test: Cell cycle analysis by flow cytometry, RT4; format: cell-based, human; conditions: 20 μM, 48 hr
J82 cells [6] = test: Cell cycle analysis by flow cytometry, J82; format: cell-based, human; conditions: 20 μM, 48 hr
caspase 3/7 = test: Apo-ONE caspase-3/7 assay, RT4; format: cell-based, human; conditions: 10 μM, 48 hr
PARP [7] = test: Western blot of PARP cleavage, RT4; format: cell-based, human; conditions: 20 μM, 48 hr
PARP [8] = test: Western blot of PARP cleavage, UMUC3; format: cell-based, human; conditions: 20 μM, 48 hr
survivin [9] = test: Western blot of survivin expression, UMUC3; format: cell-based, human; conditions: 20 μM, 48 hr
EGFR [10] = test: Western blot of EGFR expression, RT4; format: cell-based, human; conditions: 20 μM, 48 hr
EGFR [11] = test: Western blot of EGFR expression, UMUC3; format: cell-based, human; conditions: 20 μM, 48 hr
HER2/neu [12] = test: Western blot of HER2/neu expression, RT4; format: cell-based, human; conditions: 20 μM, 48 hr
HER2/neu [13] = test: Western blot of HER2/neu expression, UMUC3; format: cell-based, human; conditions: 20 μM, 48 hr
UMUC3 xenograft = UMUC3 xenograft in athymic nude mice; format: in vivo, mouse; conditions: 295 μmol/kg/day oral gavage, 2 weeks
survivin [14] = conditions: RT4; 20 μM, 48 hr

Compound: C[S+]([O-])CCCCN=C=S (centres unmarked) [R-sulforaphane]
- difference between isomers in inhibitory effects of HBCCs [1]: no difference

Compound: C[S@+]([O-])CCCCN=C=S [S-sulforaphane]
- difference between isomers in inhibitory effects of HBCCs [1]: no difference

Compound: C=CCN=C=S [allyl isothiocyanate]
- RT4 cell viability inhibition (RT4 cells [2]): 28%

Compound: C[S+]([O-])CCCN=C=S (centres unmarked) [iberin]
- RT4 cell viability inhibition (RT4 cells [2]): 12%

Compound: C[S+]([O-])CCCCN=C=S (centres unmarked) [sulforaphane]
- RT4 cell viability inhibition (RT4 cells [2]): 64%
- IC50 (RT4 cells [2]; Homo sapiens, RT-4, 48 h, read-out: IC50, cell viability): 11.2 ± 0.3 µM
- IC50 (J82 cells [3]): 7.7 ± 1.8 µM
- IC50 (UMUC3 cells): 5.66 ± 1.2 µM
- inhibition at 20 µM ([4]; Homo sapiens, 72 h, read-out: inhibition of NHU): 62%
- IC50, cell viability ([4]; NHU cells, 72 hr): not reached
- increase of cells in the G2/M phase compared to control (RT4 cells [5]): 2.6 fold
- increase of cells in the G2/M phase (J82 cells [6]): 3 fold
- increase in caspase 3/7 activity compared to control (caspase 3/7): 2.5 fold
- PARP cleavage increase (PARP [7]): 2.3 fold
- PARP cleavage increase (PARP [8]): 3.6 fold
- survivin expression downregulated (survivin [9]): 35%
- changes in EGFR expression (EGFR [10]): does not lead to significant changes
- EGFR protein expression downregulated (EGFR [11]): 54%
- decrease of HER2/neu expression (HER2/neu [12]): 10%
- HER2/neu downregulated (HER2/neu [13]): 90%
- inhibition of tumor growth rate (UMUC3 xenograft): 42%
- decrease in final tumor weight (UMUC3 xenograft; versus vehicle control soy bean oil): 33%
- decrease in survivin expression (survivin [14]): 51% and 44%
